According to patent US20190389882A1, “INHIBITORS OF BETA SECRETASE” (Janssen Pharmaceutica NV, priority 2017, published 2019):

Legend:
[1] = molecular target: T1, recombinant BACE1 protein (Homo sapiens, UniProt P56817); experiment: BACE1 biochemical FRET based assay; details: 450 min at room temperature; for IC50: pH 5.0, read-out: Biochemical FRET based assay pIC50 (converted)
T1 construct: recombinant BACE1 protein in a final concentration of 0.04 μg/ml
From the text: (§1) This assay is a Fluorescence Resonance Energy Transfer Assay (FRET) based assay. The substrate for this assay is an APP derived 13 amino acids peptide that contains the ‘Swedish’ Lys-Met/Asn-Leu mutation of the amyloid precursor protein (APP) beta-secretase cleavage site. This substrate also contains two fluorophores: (7-methoxycoumarin-4-yl) acetic acid (Mca) is a fluorescent donor with excitation wavelength at 320 nm and emission at 405 nm and 2,4-Dinitrophenyl (Dnp) is a proprietary quencher acceptor. […] Upon cleavage by BACE1, the fluorophore Mca is separated from the quenching group Dnp, restoring the full fluorescence yield of the donor. The increase in fluorescence is linearly related to the rate of proteolysis.
Briefly in a 384-well format recombinant BACE1 protein in a final concentration of 0.04 μg/ml is incubated for 450 minutes at room temperature with 20 μM substrate in incubation buffer (50 mM Citrate buffer pH 5.0, 0.05% PEG) in the presence of compound or DMSO. Next the amount of proteolysis is directly measured by fluorescence measurement (excitation at 320 nm and emission at 405 nm) at different incubation times (0, 30, 60, 90, 120 and 450 min). For every experiment a time curve (every 30 min between 0 min and 120 min) is used to determine the time where we find the lowest basal signal of the high control. The signal at this time (Tx) is used to subtract from the signal at 450 min. Results are expressed in RFU, as difference between T450 and Tx.
(§2) A best-fit curve is fitted by a minimum sum of squares method to the plot of % Controlmin versus compound concentration. From this an IC50 value (inhibitory concentration causing 50% inhibition of activity) can be obtained.

[2] = system: Abeta 1-42 produced and secreted by human neuroblastoma SKNBE2 cells expressing hAPP695; experiment: Cellular αLisa assay in SKNBE2 cells, Abeta 1-42; type: cell-based; details: 18 hours incubation; for IC50: Homo sapiens, SKNBE2, 18 h, read-out: Cellular αLisa assay in SKNBE2 cells Abeta 42 pIC50 (converted)
Procedure: (§3) Cellular αLisa Assay in Sknbe2 Cells In two αLisa assays the levels of Abeta total and Abeta 1-42 produced and secreted into the medium of human neuroblastoma SKNBE2 cells are quantified. The assay is based on the human neuroblastoma SKNBE2 expressing the wild type Amyloid Precursor Protein (hAPP695). The compounds are diluted and added to these cells, incubated for 18 hours and then measurements of Abeta 1-42 and Abeta total are taken. Abeta total and Abeta 1-42 are measured by sandwich αLisa. αLisa is a sandwich assay using biotinylated antibody AbN/25 attached to streptavidin coated beads and antibody Ab4G8 or cAb42/26 conjugated acceptor beads for the detection of Abeta total and Abeta 1-42 respectively. In the presence of Abeta total or Abeta 1-42, the beads come into close proximity. The excitation of the donor beads provokes the release of singlet oxygen molecules that trigger a cascade of energy transfer in the acceptor beads, resulting in light emission. Light emission is measured after 1 hour incubation (excitation at […] and emission at 615 nm).
as §2

[3] = system: Abeta total produced and secreted by human neuroblastoma SKNBE2 cells expressing hAPP695; experiment: Cellular αLisa assay in SKNBE2 cells, Abeta total; type: cell-based; details: 18 hours incubation, read-out: Cellular αLisa assay in SKNBE2 cells Abeta total pIC50 (converted)
Procedure: as §3, §2

[4] = molecular target: T2, recombinant BACE2 protein (Homo sapiens, UniProt Q9Y5Z0); experiment: BACE2 biochemical FRET based assay; details: 450 min at room temperature; for IC50: pH 5.0, read-out: Biochemical FRET based assay pIC50 (converted)
T2 construct: recombinant BACE2 protein in a final concentration of 0.4 μg/ml
T2 sequence (Q9Y5Z0 63-518): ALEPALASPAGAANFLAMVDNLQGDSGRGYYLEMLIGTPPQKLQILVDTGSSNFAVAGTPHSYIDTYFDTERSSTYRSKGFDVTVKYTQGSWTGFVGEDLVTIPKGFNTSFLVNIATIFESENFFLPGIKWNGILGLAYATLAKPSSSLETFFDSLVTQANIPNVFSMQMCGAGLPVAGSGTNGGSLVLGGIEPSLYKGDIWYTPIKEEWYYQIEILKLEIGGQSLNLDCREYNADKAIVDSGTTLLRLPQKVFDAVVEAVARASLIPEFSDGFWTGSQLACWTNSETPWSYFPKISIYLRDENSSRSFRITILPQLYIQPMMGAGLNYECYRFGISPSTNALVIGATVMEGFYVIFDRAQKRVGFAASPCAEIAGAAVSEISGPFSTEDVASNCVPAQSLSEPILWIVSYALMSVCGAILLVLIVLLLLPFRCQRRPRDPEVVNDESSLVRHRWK
From the text: as §1, with “assay” for “assay is an APP derived 13 amino acids peptide that”, “the beta-secretase,” for “BACE1,”
Briefly in a 384-well format recombinant BACE2 protein in a final concentration of 0.4 μg/ml is incubated for 450 minutes at room temperature with […] substrate in incubation buffer (50 mM Citrate buffer pH 5.0, 0.05% PEG, no DMSO) in the absence or presence of compound. Next the amount of proteolysis is directly measured by fluorescence measurement at T=0 and T=450 (excitation at 320 nm and emission at 405 nm). Results are expressed in RFU (Relative Fluorescence Units), as difference between T450 and TO.
as §2

[5] = molecular target: β-secretase I (BACE1) (Homo sapiens, UniProt P56817); experiment: Automated (CyclOps) biochemical assay BACE1
β-secretase I (BACE1), sequence (P56817 46-501): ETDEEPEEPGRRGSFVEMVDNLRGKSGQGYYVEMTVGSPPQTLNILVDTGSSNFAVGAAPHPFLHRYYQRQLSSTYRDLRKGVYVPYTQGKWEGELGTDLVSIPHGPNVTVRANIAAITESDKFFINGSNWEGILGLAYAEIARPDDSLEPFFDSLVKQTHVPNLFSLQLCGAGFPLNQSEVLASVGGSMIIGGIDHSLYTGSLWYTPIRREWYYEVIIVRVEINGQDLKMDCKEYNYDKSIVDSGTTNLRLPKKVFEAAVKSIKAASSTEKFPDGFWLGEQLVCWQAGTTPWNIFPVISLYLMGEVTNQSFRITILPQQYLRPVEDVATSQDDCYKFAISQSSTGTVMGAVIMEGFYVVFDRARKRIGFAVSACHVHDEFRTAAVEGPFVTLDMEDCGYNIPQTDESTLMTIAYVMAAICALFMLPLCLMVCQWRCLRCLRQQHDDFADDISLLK

[6] = molecular target: T3, β-secretase II (BACE2) (Homo sapiens, UniProt Q9Y5Z0); experiment: Automated (CyclOps) biochemical assay BACE2
T3 sequence (Q9Y5Z0 63-518): T2 sequence (Q9Y5Z0 63-518)

T1 sequence (P56817 46-501): as above

COc1ncc(CNC(=O)C2CC2)c2c1C[C@]1(c3ccc(F)cc3F)N=C(N)SC[C@@H]1C2 [Compound 31a]
IC50 [1]: 112 nM | Cellular αLisa assay in SKNBE2 cells Abeta 42 pIC50 [2]: 7.39 | IC50 [3]: 43.7 nM | IC50 [4]: 126 nM | IC50 [5]: 70.8 nM | IC50 [6]: 87.1 nM

COc1ncc(CNC(=O)c2cc(C)no2)c2c1C[C@]1(c3ccc(F)cc3F)N=C(N)SC[C@@H]1C2 [Compound 32]
IC50 [1]: 110 nM | Cellular αLisa assay in SKNBE2 cells Abeta 42 pIC50 [2]: 7.41 | IC50 [4]: 309 nM

COc1ncc(CNC(=O)c2nccnc2Cl)c2c1C[C@]1(c3ccc(F)cc3F)N=C(N)SC[C@@H]1C2 [Compound 48]
IC50 [1]: 21.9 nM | IC50 [2]: 16.6 nM | IC50 [4]: 200 nM | IC50 [5]: 12.2 nM | IC50 [6]: 72.4 nM

COc1ncc(C(=O)N2CCOCC2)c2c1C[C@]1(c3ccc(F)cc3F)N=C(N)SC[C@@H]1C2 [Compound 2]
IC50 [1]: 219 nM | IC50 [2]: 47.9 nM | IC50 [4]: 1510 nM

COc1ncc(C(=O)NC2CC2)c2c1C[C@]1(c3ccc(F)cc3F)N=C(N)SC[C@@H]1C2 [Compound 1]
Biochemical FRET based assay pIC50 ([1]; pH 5.0): 7.12 | IC50 [2]: 9.55 nM | Biochemical FRET based assay pIC50 ([4]; pH 5.0): 6.77

COc1ncc(CNC(=O)C2CC2)c2c1C[C@]1(c3ccc(F)cc3F)N=C(N)SC[C@@H]1C2 [Compound 31]
IC50 [1]: 81.3 nM | IC50 [2]: 33.1 nM | IC50 [4]: 105 nM

COc1ncc(CNC(=O)c2ccncc2)c2c1C[C@]1(c3ccc(F)cc3F)N=C(N)SC[C@@H]1C2 [Compound 30a]
IC50 [1]: 66.1 nM | Cellular αLisa assay in SKNBE2 cells Abeta 42 pIC50 [2]: 7 | IC50 [3]: 81.3 nM | IC50 [4]: 692 nM | IC50 [5]: 41.7 nM | IC50 [6]: 468 nM

COc1ncc(C(=O)NC2CC2)c2c1C[C@]1(c3ccc(F)cc3F)N=C(N)SC[C@@H]1C2 [Compound 1a]
IC50 [1]: 66.1 nM | IC50 [2]: 19.1 nM | IC50 [3]: 22.9 nM | IC50 [4]: 166 nM | IC50 [5]: 39.8 nM | IC50 [6]: 72.4 nM

COc1ncc(CNC(=O)c2cc(C)no2)c2c1C[C@]1(c3ccc(F)cc3F)N=C(N)SC[C@@H]1C2 [Compound 32a]
IC50 [1]: 182 nM | Cellular αLisa assay in SKNBE2 cells Abeta 42 pIC50 [2]: 7.07 | IC50 [3]: 95.5 nM | IC50 [4]: 589 nM | IC50 [5]: 63.1 nM | IC50 [6]: 174 nM

COc1ncc(CNC(=O)c2ccncc2)c2c1C[C@]1(c3ccc(F)cc3F)N=C(N)SC[C@@H]1C2 [Compound 30]
IC50 [1]: 29.5 nM | Cellular αLisa assay in SKNBE2 cells Abeta 42 pIC50 [2]: 7.31 | IC50 [4]: 355 nM

COc1ncc(C(=O)N2CCOCC2)c2c1CC1(c3ccc(F)cc3F)N=C(N)SCC1C2 (stereo not shown) [Compound 2a]
IC50 [1]: 240 nM | IC50 [2]: 46.8 nM | IC50 [3]: 50.1 nM | IC50 [4]: 1450 nM | IC50 [5]: 57.5 nM | IC50 [6]: 324 nM

COc1ncc(C(=O)Nc2cccnc2)c2c1C[C@]1(c3ccc(F)cc3F)N=C(N)SC[C@@H]1C2 [Compound 3]
IC50 [1]: 75.9 nM | IC50 [2]: 56.2 nM | IC50 [4]: 282 nM

COc1ncc(C(=O)N2CCC(C#N)CC2)c2c1C[C@]1(c3ccc(F)cc3F)N=C(N)SC[C@@H]1C2 [Compound 22]
IC50 [1]: 129 nM | IC50 [2]: 85.1 nM | IC50 [4]: 1100 nM | IC50 [5]: 34.7 nM | IC50 [6]: 355 nM

COc1ncc(C(=O)N2CCC(c3ccncc3)C2)c2c1C[C@]1(c3ccc(F)cc3F)N=C(N)SC[C@@H]1C2 (stereo partly shown) [Compound 28]
IC50 [1]: 20.4 nM | IC50 [2]: 28.8 nM | IC50 [4]: 977 nM
